Source: article PMC8161026, “Synthesis and Anticancer Activity Evaluation of 5-[2-Chloro-3-(4-nitrophenyl)-2-propenylidene]-4-thiazolidinones” (Molecules, 2021)

Key:
[1] = test system: SR; test: cells; conditions: Homo sapiens, 48 h
[2] = test system: EKVX; test: cells; conditions: Homo sapiens, 48 h
[3] = test system: SW-620; conditions: SW-620 (Colon Cancer), 48 h, SRB
[4] = test system: NCI-H226; test: NCI DTP 60 cell line screen, SRB
[5] = test system: NCI-H460; test: cells; conditions: Homo sapiens, NCI-H460, 48 h
[6] = test system: SW-620; test: cells; conditions: Homo sapiens, SW-620, 48 h
[7] = test system: SR; conditions: SR (Leukemia), 48 h, SRB
[8] = test system: LOX IMVI; test: cells; conditions: Homo sapiens, 48 h
[9] = test system: OVCAR-4; test: NCI DTP 60 cell line screen, SRB
[10] = test system: MOLT-4; test: cells; conditions: Homo sapiens, MOLT-4, 48 h
[11] = test system: SN12C; test: cells; conditions: Homo sapiens, 48 h
[12] = test system: MALME-3M; test: NCI DTP 60 cell line screen, SRB; conditions: 48 h
[13] = test system: SK-MEL-2; conditions: SK-MEL-2 (Melanoma), 48 h, SRB
[14] = test system: HT-29; test: NCI DTP 60 cell line screen, SRB
[15] = test system: A549/ATCC; test: cells; conditions: Homo sapiens, A549, 48 h
[16] = test system: CAKI-1; test: NCI DTP 60 cell line screen, SRB
[17] = test system: PC-3; conditions: PC-3 (Prostate Cancer), 48 h, SRB
[18] = test system: HOP-62; test: cells; conditions: Homo sapiens, HOP-62, 48 h
[19] = test system: SK-MEL-5; test: NCI DTP 60 cell line screen, SRB
[20] = test system: SK-OV-3; test: NCI DTP 60 cell line screen, SRB
[21] = test system: HL-60(TB); test: cells; conditions: Homo sapiens, HL-60, 48 h
[22] = test system: HL-60(TB); conditions: HL-60(TB) (Leukemia), 48 h, SRB
[23] = test system: DU-145; conditions: DU-145 (Prostate Cancer), 48 h, SRB
[24] = test system: 786-0; test: cells; conditions: Homo sapiens, 786-0, 48 h
[25] = test system: HS 578T; test: NCI DTP 60 cell line screen, SRB; conditions: 48 h
[26] = test system: M14; test: NCI DTP 60 cell line screen, SRB
[27] = test system: ACHN; test: NCI DTP 60 cell line screen, SRB; conditions: 48 h
[28] = test system: KM12; conditions: KM12 (Colon Cancer), 48 h, SRB
[29] = test system: DU-145; test: cells; conditions: Homo sapiens, DU-145, 48 h
[30] = test system: SN12C; conditions: SN12C (Renal Cancer), 48 h, SRB
[31] = test system: HOP-62; conditions: HOP-62 (Non-Small Cell Lung Cancer), 48 h, SRB
[32] = test system: SNB-75; conditions: SNB-75 (CNS Cancer), 48 h, SRB
[33] = test system: NCI/ADR-Res; test: NCI DTP 60 cell line screen, SRB; conditions: 48 h
[34] = test system: BT-549; test: NCI DTP 60 cell line screen, SRB

O=C1NC(=S)S/C1=C\C(Cl)=C\c1ccc([N+](=O)[O-])cc1 [Compound 2b, 5-[(Z,2Z)-2-Chloro-3-(4-nitrophenyl)-2-propenylidene]-2-thioxo-4-thiazolidinone]
GI50 [1]: 1.18 µM
CC50 ([1]; read-out: LC50): > 50 µM
GI50 [2]: 2.76 µM
CC50 ([2]; read-out: LC50): > 50 µM
TGI [3]: 7.62 µM
GI50 ([4]; Homo sapiens, NCI-H226, 48 h): 6.28 µM
CC50 ([4]; Homo sapiens, NCI-H226, 48 h, read-out: LC50): > 50 µM
TGI ([4]; NCI-H226 (Non-Small Cell Lung Cancer), 48 h, SRB): 20.0 µM
GI50 [5]: 3.95 µM
CC50 ([5]; read-out: LC50): > 50 µM
GI50 [6]: 1.94 µM
CC50 ([6]; read-out: LC50): 23.5 µM
TGI [7]: 7.96 µM
GI50 [8]: 6.6 µM
CC50 ([8]; read-out: LC50): 36 µM
GI50 ([9]; Homo sapiens, OVCAR-4, 48 h): 1.95 µM
CC50 ([9]; Homo sapiens, OVCAR-4, 48 h, read-out: LC50): > 50 µM
TGI ([9]; OVCAR-4 (Ovarian Cancer), 48 h, SRB): 11.7 µM
GI50 [10]: 1.74 µM
CC50 ([10]; read-out: LC50): > 50 µM
GI50 [11]: 4.11 µM
CC50 ([11]; read-out: LC50): > 50 µM
GI50 ([12]; Homo sapiens, Malme-3M): 4.93 µM
CC50 ([12]; Homo sapiens, Malme-3M, read-out: LC50): 44.6 µM
TGI ([12]; MALME-3M (Melanoma), SRB): 14.9 µM
TGI [13]: 26.9 µM
TGI ([14]; HT-29 (Colon Cancer), 48 h, SRB): 9.48 µM
GI50 ([14]; Homo sapiens, HT-29, 48 h): 1.48 µM
CC50 ([14]; Homo sapiens, HT-29, 48 h, read-out: LC50): > 50 µM
GI50 [15]: 8.18 µM
CC50 ([15]; read-out: LC50): > 50 µM
TGI ([16]; CAKI-1 (Renal Cancer), 48 h, SRB): 25.2 µM
GI50 ([16]; Homo sapiens, CAKI-1, 48 h): 7.14 µM
CC50 ([16]; Homo sapiens, CAKI-1, 48 h, read-out: LC50): > 50 µM
TGI [17]: > 50 µM
GI50 [18]: 15.4 µM
CC50 ([18]; read-out: LC50): > 50 µM
GI50 ([19]; Homo sapiens, SK-MEL-5, 48 h): 3.82 µM
CC50 ([19]; Homo sapiens, SK-MEL-5, 48 h, read-out: LC50): 24 µM
TGI ([19]; SK-MEL-5 (Melanoma), 48 h, SRB): 10.6 µM
GI50 ([20]; Homo sapiens, SK-OV-3, 48 h): 13 µM
CC50 ([20]; Homo sapiens, SK-OV-3, 48 h, read-out: LC50): > 50 µM
TGI ([20]; SK-OV-3 (Ovarian Cancer), 48 h, SRB): > 50 µM
GI50 [21]: 1.21 µM
CC50 ([21]; read-out: LC50): > 50 µM
TGI [22]: 14.4 µM
TGI [23]: 14.2 µM
GI50 [24]: 9.4 µM
CC50 ([24]; read-out: LC50): 37.6 µM
TGI ([25]; HS 578T (Breast Cancer), SRB): 12.1 µM
GI50 ([25]; Homo sapiens, Hs-578T): 1.42 µM
CC50 ([25]; Homo sapiens, Hs-578T, read-out: LC50): > 50 µM
GI50 ([26]; Homo sapiens, M14, 48 h): 8.87 µM
CC50 ([26]; Homo sapiens, M14, 48 h, read-out: LC50): > 50 µM
TGI ([26]; M14 (Melanoma), 48 h, SRB): 32.2 µM
TGI ([27]; ACHN (Renal Cancer), SRB): 11.8 µM
GI50 ([27]; Homo sapiens, ACHN): 3.64 µM
CC50 ([27]; Homo sapiens, ACHN, read-out: LC50): 31.7 µM
TGI [28]: 14.6 µM
GI50 [29]: 7.09 µM
CC50 ([29]; read-out: LC50): 28.4 µM
TGI [30]: 18.0 µM
TGI [31]: 33.1 µM
TGI [32]: 23.5 µM
GI50 ([33]; Homo sapiens, NCI/ADR-RES): 5.71 µM
CC50 ([33]; Homo sapiens, NCI/ADR-RES, read-out: LC50): > 50 µM
TGI ([33]; NCI/ADR-Res (Breast Cancer), SRB): 18.3 µM
TGI ([34]; BT-549 (Breast Cancer), 48 h, SRB): 4.74 µM
GI50 ([34]; Homo sapiens, BT-549, 48 h): 1.47 µM
CC50 ([34]; Homo sapiens, BT-549, 48 h, read-out: LC50): 27.2 µM
